In patent US20090076029A1 (Palatin Technologies, Inc., priority 2007, published 2009):

System: T1, hMC5-R
T1 construct: expressed in transfected cells; host or cells: HEK-293
Assay: cAMP functional assay, HEK-293 cells expressing hMC5-R
Assay type: cell-based, human
Settings: cAMP assay at 1 μM

Question: With `CC(C)C[C@@H]1CN(C(=O)[C@H](N)Cc2ccc(Cl)cc2Cl)[C@@H](CCCNC(=N)N)CN1CCc1ccc2ccccc2c1` [Example 4, N-{3-[1-[2(R)-Amino-3-(2,4-dichloro-phenyl)-propionyl]-5(R)-isobutyl-4-(2-naphthalen-2-yl-ethyl)-piperazin-2(S)-yl]-propyl}-guanidine] as the molecule, how does the “functional status at MC5-R” value read?
Answer: partial agonist (intrinsic activity between 0.1 (10%) and 0.7 (70%) is classified as a partial agonist)
